From ChEMBL document CHEMBL5729081, “Morpholine derivative” (2022)

Target: hERG (KCNH2) potassium channel (Homo sapiens, UniProt Q12809)
Assay: For electrophysiological measurements cells were seeded onto 35 mm sterile culture dishes containing 2 ml culture medium without Hygromycin B. Cells were cultivated at a density that enabled single cells (without visible connections to neighbouring cells) to be measured. […] The cells were continuously maintained in and passaged in sterile culture flasks containing nutrient mixture F-12 (DMEM/F-12 with L-Glutamine) supplemented with 10% foetal bovine serum and 10% penicillin/streptomycin solution. […] The 35 mm culture dishes upon which cells were seeded at a density allowing single cells to be recorded were placed on the dish holder of the microscope and continuously perfused (at approximately 1 ml/min) with the bath solution (sodium chloride 150 mM, potassium chloride 4 mM, calcium chloride 1.2 mM, magnesium chloride 1 mM, HEPES 10 mM, pH (NaOH) 7.4) at near physiological temperature (36±1° C.). After formation of a Gigaohm seal between the patch electrodes and individual hERG stably transfected CHO cells (pipette resistance range: 2.0 MΩ-7.0 MΩ; seal resistance range: >1 GΩ) the cell membrane across the pipette tip was ruptured to assure electrical access to the cell interior (whole-cell patch-configuration). In case the quality of the seal was poor, the process of seal formation was repeated with a different cell and a new pipette. […] […]
Format: cell-based
Conditions: CHO cells stably expressing the hERG channel, pH 7.4

Sequence of hERG (KCNH2) potassium channel (Q12809 whole entry, the tested form may be a part): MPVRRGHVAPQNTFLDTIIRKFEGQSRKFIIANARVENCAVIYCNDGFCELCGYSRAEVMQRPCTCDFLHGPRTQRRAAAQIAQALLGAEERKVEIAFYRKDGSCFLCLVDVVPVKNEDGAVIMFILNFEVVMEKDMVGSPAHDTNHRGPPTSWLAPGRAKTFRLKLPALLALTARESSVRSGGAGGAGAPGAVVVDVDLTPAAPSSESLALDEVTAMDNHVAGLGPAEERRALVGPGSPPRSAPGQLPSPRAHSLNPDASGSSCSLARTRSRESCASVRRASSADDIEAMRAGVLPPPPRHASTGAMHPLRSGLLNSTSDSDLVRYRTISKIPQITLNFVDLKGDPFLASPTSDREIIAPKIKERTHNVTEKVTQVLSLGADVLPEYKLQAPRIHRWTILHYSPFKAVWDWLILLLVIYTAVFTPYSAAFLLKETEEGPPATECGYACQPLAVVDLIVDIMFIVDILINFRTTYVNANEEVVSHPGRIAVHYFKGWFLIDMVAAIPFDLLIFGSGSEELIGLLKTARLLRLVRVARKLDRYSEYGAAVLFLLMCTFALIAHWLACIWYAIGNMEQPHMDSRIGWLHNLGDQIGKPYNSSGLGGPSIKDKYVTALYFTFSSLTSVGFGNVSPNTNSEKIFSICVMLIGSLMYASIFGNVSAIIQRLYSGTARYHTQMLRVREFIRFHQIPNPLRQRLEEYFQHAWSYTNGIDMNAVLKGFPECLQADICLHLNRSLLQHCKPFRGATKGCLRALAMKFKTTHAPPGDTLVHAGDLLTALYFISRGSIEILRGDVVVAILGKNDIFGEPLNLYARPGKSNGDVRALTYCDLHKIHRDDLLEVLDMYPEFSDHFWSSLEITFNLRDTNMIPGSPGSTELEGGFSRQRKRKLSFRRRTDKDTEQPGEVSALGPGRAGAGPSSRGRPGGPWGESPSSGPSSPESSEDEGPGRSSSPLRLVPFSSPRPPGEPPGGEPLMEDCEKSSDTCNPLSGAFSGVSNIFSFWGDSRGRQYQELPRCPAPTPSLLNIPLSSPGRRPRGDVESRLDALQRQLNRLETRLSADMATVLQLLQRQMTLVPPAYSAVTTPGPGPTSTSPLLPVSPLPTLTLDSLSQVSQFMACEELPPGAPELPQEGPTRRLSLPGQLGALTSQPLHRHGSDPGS

O=C(Nc1ccc([C@H]2CNCCO2)cc1)c1ccc(Cl)nc1
IC50: 14.3 µM
